Experimental data as given in the supplement of paper PMC13380429.
Counter-ions that a name gives are not always drawn.

How the values were obtained:
Details in all cases: 72 h
Caco-2 [1] = assay: cell viability relative to DMSO; higher = less toxic
Calu-3 [2] = assay: as above
HepG2 [3] = assay: as above
U2OS [4] = assay: as above
Vero E6 [5] = assay: as above
Caco-2 [6] = assay: relative viability EC50 (midpoint between 100% and the lowest measured viability); higher = less toxic
Calu-3 [7] = assay: as above
HepG2 [8] = assay: as above
U2OS [9] = assay: as above
Vero E6 [10] = assay: as above
Caco-2 [11] = assay: drug sensitivity score (DSS) for viability; higher = more toxic; extreme values may be limits of the assay
Calu-3 [12] = assay: as above
HepG2 [13] = assay: as above
U2OS [14] = assay: as above
Vero E6 [15] = assay: as above

Row | SMILES | cell viability (Caco-2 [1]; 1 nM) [%] | cell viability (Caco-2 [1]; 10 nM) [%] | cell viability (Caco-2 [1]; 100 nM) [%] | cell viability (Caco-2 [1]; 1000 nM) [%] | cell viability (Caco-2 [1]; 10000 nM) [%] | cell viability (Calu-3 [2]; 1 nM) [%] | cell viability (Calu-3 [2]; 10 nM) [%] | cell viability (Calu-3 [2]; 100 nM) [%] | cell viability (Calu-3 [2]; 1000 nM) [%] | cell viability (Calu-3 [2]; 10000 nM) [%] | cell viability (HepG2 [3]; 1 nM) [%] | cell viability (HepG2 [3]; 10 nM) [%] | cell viability (HepG2 [3]; 100 nM) [%] | cell viability (HepG2 [3]; 1000 nM) [%] | cell viability (HepG2 [3]; 10000 nM) [%] | cell viability (U2OS [4]; 1 nM) [%] | cell viability (U2OS [4]; 10 nM) [%] | cell viability (U2OS [4]; 100 nM) [%] | cell viability (U2OS [4]; 1000 nM) [%] | cell viability (U2OS [4]; 10000 nM) [%] | cell viability (Vero E6 [5]; 1 nM) [%] | cell viability (Vero E6 [5]; 10 nM) [%] | cell viability (Vero E6 [5]; 100 nM) [%] | cell viability (Vero E6 [5]; 1000 nM) [%] | cell viability (Vero E6 [5]; 10000 nM) [%] | relative viability EC50 (Caco-2 [6]) [µM] | relative viability EC50 (Calu-3 [7]) [µM] | relative viability EC50 (HepG2 [8]) [µM] | relative viability EC50 (U2OS [9]) [µM] | relative viability EC50 (Vero E6 [10]) [µM] | drug sensitivity score (Caco-2 [11]) | drug sensitivity score (Calu-3 [12]) | drug sensitivity score (HepG2 [13]) | drug sensitivity score (U2OS [14]) | drug sensitivity score (Vero E6 [15])
1 | CC(C)(C=O)Cc1cc(C(C)(C)C)c(O)c(C(C)(C)C)c1 | 92.7 | 97.6 | 97.6 | 90.4 | 96.7 | 102 | 98.8 | 91.2 | 100 | 102 | 97.2 | 96.1 | 108 | 99.9 | 90.9 | 106 | 103 | 104 | 98.1 | 102 | 97.1 | 97.8 | 103 | 98.4 | 101 | > 10 | > 10 | > 10 | > 10 | > 10 | 0 | 0 | 0 | 0 | 0
2 | C=C1/C(=C\C=C2/CCC[C@]3(C)[C@@H]([C@H](C)/C=C/C=C/C(O)(CC)CC)CC[C@@H]23)C[C@@H](O)C[C@@H]1O [seocalcitol] | 98.5 | 87.2 | 97.4 | 98.5 | 97.4 | 107 | 102 | 99.2 | 95.7 | 94.9 | 104 | 97.3 | 99.3 | 112 | 99.4 | 99.9 | 95.5 | 105 | 96.5 | 89.6 | 96 | 93.5 | 88.7 | 96.6 | 96.7 | > 10 | > 10 | > 10 | > 10 | > 10 | 0 | 0 | 0 | 0 | 0
3 | CCN(C(=O)c1c(O)c2c(Cl)cccc2n(C)c1=O)c1ccccc1 [laquinimod] | 90.3 | 88.5 | 98.2 | 106 | 91.5 | 110 | 87.9 | 91.5 | 108 | 102 | 102 | 98.6 | 103 | 93.4 | 92.8 | 96.9 | 98.9 | 99.2 | 97.6 | 96.9 | 99.8 | 99.9 | 92.8 | 92.5 | 91.4 | > 10 | > 10 | > 10 | > 10 | > 10 | 0 | 0 | 0 | 0 | 0
4 | Nc1ncnc2c1ncn2[C@H]1O[C@@H](C(=O)N2CCN(CC(=O)Nc3cccc4c3CNC4=O)CC2)[C@H](O)[C@@H]1O [EB-47] | 97.8 | 103 | 104 | 94.8 | 92.6 | 92 | 102 | 91.3 | 104 | 85.7 | 102 | 96.3 | 103 | 102 | 93.9 | 99.4 | 107 | 102 | 100 | 96.7 | 102 | 98.6 | 94.7 | 92.4 | 97.6 | > 10 | > 10 | > 10 | > 10 | > 10 | 0 | 0.1 | 0 | 0 | 0
5 | CCSC(=N)N [EIT-hydrobromide] | 97.7 | 98.1 | 91.1 | 102 | 107 | 108 | 96.8 | 96.9 | 104 | 103 | 96.9 | 90 | 94.3 | 102 | 103 | 94.2 | 101 | 97.5 | 100 | 103 | 94.2 | 99.4 | 96.9 | 95.8 | 105 | > 10 | > 10 | > 10 | > 10 | > 10 | 0 | 0 | 0 | 0 | 0
6 | O=c1c(O)c(-c2ccc(O)c(O)c2)oc2cc(O)ccc12 [fisetin] | 96.8 | 104 | 95.3 | 96.8 | 92.8 | 93.2 | 90.1 | 95.3 | 101 | 83.2 | 95 | 111 | 104 | 107 | 105 | 97.5 | 97.6 | 102 | 94.8 | 98 | 93.3 | 97.9 | 91.3 | 97.1 | 103 | > 10 | > 10 | > 10 | > 10 | > 10 | 0 | 0.3 | 0 | 0 | 0
7 | CC(C)(O)CS(=O)(=O)Nc1ccc2c(c1)CCN(C(=O)COc1cccnc1)C2 [Nampt-IN-1] | 100 | 99.8 | 84.5 | 4 | 3.7 | 93.2 | 88.1 | 50.8 | 6.2 | 5.7 | 98.2 | 100 | 50.2 | 20.1 | 16.2 | 108 | 104 | 6.2 | -0.1 | 0.1 | 105 | 103 | 104 | 3.3 | 2.4 | 0.193 | 0.0828 | 0.0823 | 0.0392 | 0.348 | 20 | 22.9 | 21.2 | 29.3 | 17.1
8 | Cc1cccc(C)c1NC(=O)CN1CCCCCC1 [pincainide] | 94.3 | 102 | 94.1 | 110 | 82 | 95.1 | 96 | 99 | 98.7 | 97.5 | 99.2 | 106 | 118 | 104 | 106 | 97.7 | 103 | 98 | 101 | 101 | 98.7 | 87.8 | 95.7 | 89.2 | 107 | > 10 | > 10 | > 10 | > 10 | > 10 | 0.2 | 0 | 0 | 0 | 0
9 | COc1ccccc1N1CCN(CCCNc2cc(=O)n(C)c(=O)n2C)CC1 [urapidil] | 92.1 | 96.4 | 97.9 | 101 | 104 | 96.7 | 98.5 | 96.4 | 102 | 107 | 105 | 90.1 | 107 | 95.8 | 95 | 91.1 | 97.5 | 95.2 | 101 | 103 | 100 | 100 | 98.8 | 98.6 | 102 | > 10 | > 10 | > 10 | > 10 | > 10 | 0 | 0 | 0 | 0 | 0
10 | CC(C)[C@@H](CN1CC[C@@](C)(c2cccc(O)c2)[C@@H](C)C1)NC(=O)[C@H]1Cc2ccc(O)cc2CN1 [JDTic] | 91.9 | 95.2 | 96.7 | 93.3 | 98.5 | 103 | 103 | 95 | 109 | 83.2 | 100 | 95.6 | 99.4 | 101 | 99.6 | 96.7 | 104 | 95.5 | 101 | 102 | 99.4 | 98 | 97.6 | 95.1 | 102 | > 10 | > 10 | > 10 | > 10 | > 10 | 0 | 0.2 | 0 | 0 | 0
11 | COc1ccc(S(=O)(=O)Nc2c(C)cc(C)cc2C)cc1 | 106 | 94.2 | 93.6 | 94.9 | 94.1 | 103 | 96.5 | 94.6 | 106 | 102 | 105 | 98 | 105 | 99.5 | 97.3 | 103 | 98.7 | 101 | 98.5 | 99.6 | 101 | 105 | 97.2 | 101 | 93.7 | > 10 | > 10 | > 10 | > 10 | > 10 | 0 | 0 | 0 | 0 | 0
12 | Nc1ccc(S(N)(=O)=O)cc1 [sulfanilamide] | 85.8 | 59.8 | 84.2 | 81.1 | 113 | 95 | 97.2 | 106 | 90.7 | 102 | 96.8 | 104 | 95.1 | 109 | 103 | 98.8 | 97 | 106 | 100 | 103 | 99.8 | 94.2 | 83.1 | 105 | 117 | > 10 | > 10 | > 10 | > 10 | > 10 | 0 | 0 | 0 | 0 | 0
13 | C[C@@H](O)[C@@H]1NC(=O)[C@H](CCCCN)NC(=O)[C@@H](Cc2c[nH]c3ccccc23)NC(=O)[C@H](Cc2ccccc2)NC(=O)[C@@H](NC(=O)[C@H](N)Cc2ccccc2)CSSC[C@@H](C(=O)N[C@H](CO)[C@@H](C)O)NC1=O [octreotide] | 103 | 115 | 95.6 | 119 | 104 | 94.3 | 91.9 | 120 | 101 | 109 | 98.1 | 98.9 | 98.8 | 115 | 92.7 | 97.5 | 101 | 96 | 102 | 101 | 110 | 103 | 110 | 107 | 93 | > 10 | > 10 | > 10 | > 10 | > 10 | 0 | 0 | 0 | 0 | 0
14 | Cc1onc(-c2ccccc2)c1-c1ccc(S(N)(=O)=O)cc1 [valdecoxib] | 103 | 97.5 | 98 | 93.4 | 93.6 | 95.6 | 104 | 105 | 96.9 | 106 | 89.6 | 95.3 | 97.5 | 96 | 96.1 | 96.5 | 94.9 | 97.8 | 99.5 | 98.5 | 102 | 99.1 | 106 | 93.8 | 99.5 | > 10 | > 10 | > 10 | > 10 | > 10 | 0 | 0 | 0 | 0 | 0
